Converted amounts (≈) assume the structure as drawn. “Also recorded” adds a separate entry of the source. Where two headings read alike, the source gives them in different places.
Tests used:
human cancer cells = experiment: Viability of human cancer cells at 72 hours post-treatment; type: cell-based; settings: for Relative Potency*: relative to the potency of ONC201, viability of human cancer cells at 72 hours post-treatment
HCT116 cells = experiment: Anticancer efficacy in HCT116 cells; type: cell-based, human; settings: HCT116 cells
GPR132 = biological target: T1, GPR132 (Homo sapiens, UniProt Q9UNW8); experiment: β-arrestin recruitment GPCR reporter assay, GPR132; type: cell-based
T1 sequence (Q9UNW8 1-380): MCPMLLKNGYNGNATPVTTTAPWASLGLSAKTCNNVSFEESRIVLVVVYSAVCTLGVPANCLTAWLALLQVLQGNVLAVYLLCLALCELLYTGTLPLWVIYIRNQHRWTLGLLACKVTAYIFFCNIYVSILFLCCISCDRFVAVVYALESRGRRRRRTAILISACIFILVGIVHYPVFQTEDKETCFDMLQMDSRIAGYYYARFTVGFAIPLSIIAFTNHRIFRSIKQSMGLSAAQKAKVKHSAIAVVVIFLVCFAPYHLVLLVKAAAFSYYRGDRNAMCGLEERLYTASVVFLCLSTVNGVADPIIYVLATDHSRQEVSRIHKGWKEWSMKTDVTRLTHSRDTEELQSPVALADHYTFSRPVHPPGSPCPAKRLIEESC

DRD5 = DRD5 (Homo sapiens, UniProt P21918); experiment: β-arrestin recruitment GPCR reporter assay, DRD5; type: cell-based; settings: arrestin recruitment reporter assay
Chain of DRD5 (P21918 whole entry): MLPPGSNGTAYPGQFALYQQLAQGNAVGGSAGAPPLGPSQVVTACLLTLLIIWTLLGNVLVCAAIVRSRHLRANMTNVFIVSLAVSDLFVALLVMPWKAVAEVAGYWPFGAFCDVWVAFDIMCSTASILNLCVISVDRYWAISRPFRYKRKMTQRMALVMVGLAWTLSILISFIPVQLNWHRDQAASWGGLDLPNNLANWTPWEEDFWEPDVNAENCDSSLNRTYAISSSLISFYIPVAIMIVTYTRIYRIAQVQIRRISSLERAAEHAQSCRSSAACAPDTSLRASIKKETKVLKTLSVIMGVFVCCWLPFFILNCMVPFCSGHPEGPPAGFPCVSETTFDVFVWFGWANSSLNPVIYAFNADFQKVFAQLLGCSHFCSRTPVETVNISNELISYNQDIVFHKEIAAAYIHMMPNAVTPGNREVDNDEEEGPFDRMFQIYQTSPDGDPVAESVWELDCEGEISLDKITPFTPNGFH

DRD2L = DRD2L (Homo sapiens, UniProt P14416); experiment: Gaddum/Schild analysis of arrestin recruitment to DRD2L; type: cell-based; settings: arrestin recruitment / cAMP reporters (FIGS. 5B, 5C, 5F)
Chain of DRD2L (P14416 whole entry): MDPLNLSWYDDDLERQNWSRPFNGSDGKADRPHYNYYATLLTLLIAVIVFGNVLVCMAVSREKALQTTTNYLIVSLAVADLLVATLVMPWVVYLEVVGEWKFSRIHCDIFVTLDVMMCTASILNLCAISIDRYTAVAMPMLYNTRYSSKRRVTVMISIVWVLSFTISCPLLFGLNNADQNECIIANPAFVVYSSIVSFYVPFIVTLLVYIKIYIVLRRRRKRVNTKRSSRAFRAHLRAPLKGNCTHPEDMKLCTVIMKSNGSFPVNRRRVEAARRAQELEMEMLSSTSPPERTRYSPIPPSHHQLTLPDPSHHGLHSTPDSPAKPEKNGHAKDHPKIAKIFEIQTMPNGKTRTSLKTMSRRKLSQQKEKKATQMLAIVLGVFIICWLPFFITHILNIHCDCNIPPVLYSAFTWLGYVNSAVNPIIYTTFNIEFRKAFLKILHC

CXCR7 = CXCR7 (Homo sapiens, UniProt P25106); experiment: β-arrestin recruitment GPCR reporter assay, CXCR7; type: cell-based
Chain of CXCR7 (P25106 whole entry): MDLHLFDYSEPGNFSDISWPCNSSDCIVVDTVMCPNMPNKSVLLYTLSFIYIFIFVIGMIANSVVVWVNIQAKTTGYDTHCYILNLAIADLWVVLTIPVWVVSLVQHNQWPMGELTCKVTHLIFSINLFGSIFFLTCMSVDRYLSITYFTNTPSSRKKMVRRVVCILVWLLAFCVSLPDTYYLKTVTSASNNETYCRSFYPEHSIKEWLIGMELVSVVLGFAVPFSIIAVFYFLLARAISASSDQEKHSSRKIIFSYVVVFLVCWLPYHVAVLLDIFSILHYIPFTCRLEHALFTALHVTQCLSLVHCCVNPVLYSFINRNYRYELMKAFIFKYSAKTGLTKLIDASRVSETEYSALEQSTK

[1] = tested on: Staphylococcus aureus ATCC 29213; experiment: MIC by micro-broth dilution, S. aureus ATCC 29213; type: cell-based
[2] = tested on: Staphylococcus aureus ATCC 33591; experiment: MIC by micro-broth dilution, S. aureus ATCC 33591; type: cell-based
[3] = tested on: Staphylococcus aureus ATCC 700699; experiment: MIC by micro-broth dilution, S. aureus ATCC 700699; type: cell-based
[4] = Jacob et al. 2014; Wagner et al. 2015; cited from earlier work
[5] = Staphylococcus aureus, ATCC29213, 24 h
[6] = Staphylococcus aureus, ATCC33591, 24 h
[7] = Staphylococcus aureus, ATCC700699, 48 h

With `O=C1C2=C(CCN(Cc3ccccc3)C2)N2CCN=C2N1CC1CCON1` (stereo not shown) [ONC222] the “Relative Potency*” value (human cancer cells) was “C (C Indicates a potency decrease of >2-fold of ONC201)”.

For `Cc1ccc(CN2C(=O)C3=C(CCN(Cc4ccccc4)C3)N3CCN=C23)cc1` [ONC223], the “Relative Potency*” value (human cancer cells) was “A (A Indicates a potency increase of >2-fold of ONC201)”.

For `O=C1C2=C(CCN(Cc3ccccc3)C2)N2CCN=C2N1CCN1CCOCC1` [ONC224], the “Relative Potency*” value (human cancer cells) was “A (A Indicates a potency increase of >2-fold of ONC201)”.

For `O=C1C2=C(CCN(Cc3ccccc3)C2)N2CCN=C2N1Cc1ccc(C(F)(F)F)cc1F` [ONC225], the “Relative Potency*” value (human cancer cells) was “A (A Indicates a potency increase of >2-fold of ONC201)”.

With `O=C1C2=C(CCN(Cc3ccccc3)C2)N2CCN=C2N1Cc1cccnc1` [ONC226] the “Relative Potency*” value (human cancer cells) was “A (A Indicates a potency increase of >2-fold of ONC201)”.

In the case of `O=C1C2=C(CCN(Cc3ccc(C(F)(F)F)cc3)C2)N2CCN=C2N1Cc1ccc(C(F)(F)F)cc1` [ONC227], the “Relative Potency*” value (human cancer cells) is reported as “B (B Indicates potency that is within 2-fold of ONC201)”.

With `O=C1C2=C(CCN(Cc3ccc(F)cc3)C2)N2CCN=C2N1Cc1ccc(C(F)(F)F)cc1` [ONC228] the “Relative Potency*” value (human cancer cells) was “A (A Indicates a potency increase of >2-fold of ONC201)”.

For `COc1ccc(CN2CCC3=C(C2)C(=O)N(Cc2ccc(C(F)(F)F)cc2)C2=NCCN23)cc1` [ONC229], the “Relative Potency*” value (human cancer cells) was “B (B Indicates potency that is within 2-fold of ONC201)”.

In the case of `O=C(CCCN1CCC2=C(C1)C(=O)N(Cc1ccc(C(F)(F)F)cc1)C1=NCCN12)c1ccc(F)cc1` [ONC230], the “Relative Potency*” value (human cancer cells) is reported as “A (A Indicates a potency increase of >2-fold of ONC201)”.

With `O=C1C2=C(CCN(Cc3cccnc3)C2)N2CCN=C2N1Cc1ccc(C(F)(F)F)cc1` [ONC231] the “Relative Potency*” value (human cancer cells) was “A (A Indicates a potency increase of >2-fold of ONC201)”.

With `Cc1csc(CN2CCC3=C(C2)C(=O)N(Cc2ccc(C(F)(F)F)cc2)C2=NCCN23)n1` [ONC232] the “Relative Potency*” value (human cancer cells) was “B (B Indicates potency that is within 2-fold of ONC201)”.

For `O=C1C2=C(CCN(Cc3cnccn3)C2)N2CCN=C2N1Cc1ccc(C(F)(F)F)cc1` [ONC233], the “Relative Potency*” value (human cancer cells) was “B (B Indicates potency that is within 2-fold of ONC201)”.

For `O=C1C2=C(CCN(Cc3ccsc3)C2)N2CCN=C2N1Cc1ccc(C(F)(F)F)cc1` [ONC236], the “Relative Potency*” value (human cancer cells) was “A (A Indicates a potency increase of >2-fold of ONC201)”, the completeness of response (HCT116 cells) was “better than ONC201 but not ONC212; also recorded: same as ONC212, and better than ONC201” and the “GPCR activity, GPR132” value (GPR132) was “highly selective GPR132 agonist”.

In the case of `O=C1C2=C(CCN(CC(O)c3ccccc3)C2)N2CCN=C2N1Cc1ccc(C(F)(F)F)cc1` (stereo not shown) [ONC237], the IC50 (human cancer cells; Homo sapiens, cell line not stated, read-out: anticancer efficacy IC50) is reported as 31.2 µM, the “Relative Potency*” value (human cancer cells) is reported as “C (C Indicates a potency decrease of >2-fold of ONC201)” and the “GPCR activity, DRD5” value (DRD5) is reported as “DRD5 antagonist”. The “GPCR activity, GPR132” value (GPR132) was “GPR132 agonist”.

For `Cc1ccccc1CN1C2=NCCN2C(=O)C2=C1CCN(Cc1ccccc1)C2` [TIC-10], the “antagonism of DRD2L” value (DRD2L) was “did not inhibit”, the “GPCR activity, CXCR7” value (CXCR7) was “CXCR7 agonist” and the MIC ([1]; ATCC29213, wild type Staphylococcus aureus (ATCC 29213), read-out: MIC) was over 100 µg/mL. The MIC90 ([1]; Staphylococcus aureus, ATCC29213, ATCC 29213, 24 hours, read-out: MIC90) was over 100 µg/mL, the MIC ([1]; Staphylococcus aureus, ATCC29213, ATCC 29213, 24 hours, read-out: MIC95) was over 100 µg/mL and the MIC99 ([1]; Staphylococcus aureus, ATCC29213, ATCC 29213, 24 hours, read-out: MIC99) was over 100 µg/mL. It also gave an MIC ([1]; Staphylococcus aureus, ATCC29213, ATCC 29213, 24 hours, read-out: MIC, Visual) of over 100 µg/mL, an MIC ([2]; ATCC33591, Staphylococcus aureus (ATCC 33591), methicillin resistant, read-out: MIC) of over 100 µg/mL and an MIC90 ([2]; Staphylococcus aureus, ATCC33591, ATCC 33591, 24 hours, read-out: MIC90) of over 100 µg/mL. For the same compound, the MIC ([2]; Staphylococcus aureus, ATCC33591, ATCC 33591, 24 hours, read-out: MIC95) was over 100 µg/mL, the MIC99 ([2]; Staphylococcus aureus, ATCC33591, ATCC 33591, 24 hours, read-out: MIC99) was over 100 µg/mL and the MIC ([2]; Staphylococcus aureus, ATCC33591, ATCC 33591, 24 hours, read-out: MIC, Visual) was over 100 µg/mL. The MIC ([3]; ATCC700699, MDR Staphylococcus aureus (ATCC 700699), read-out: MIC) was over 100 µg/mL, the MIC90 ([3]; Staphylococcus aureus, ATCC700699, ATCC 700699 (48 hours), read-out: MIC90) was over 100 µg/mL and the MIC ([3]; Staphylococcus aureus, ATCC700699, ATCC 700699 (48 hours), read-out: MIC95) was over 100 µg/mL. For the same compound, the MIC99 ([3]; Staphylococcus aureus, ATCC700699, ATCC 700699 (48 hours), read-out: MIC99) was over 100 µg/mL, the MIC ([3]; Staphylococcus aureus, ATCC700699, ATCC 700699 (48 hours), read-out: MIC, Visual) was over 100 µg/mL and the anti-cancer activity [4] was “lacks anti-cancer activity”.

`CN[C@H](CC(C)C)C(=O)N[C@H]1C(=O)N[C@@H](CC(N)=O)C(=O)N[C@H]2C(=O)N[C@H]3C(=O)N[C@H](C(=O)N[C@H](C(=O)O)c4cc(O)cc(O)c4-c4cc3ccc4O)[C@H](O)c3ccc(c(Cl)c3)Oc3cc2cc(c3O[C@@H]2O[C@H](CO)[C@@H](O)[C@H](O)[C@H]2O[C@H]2C[C@](C)(N)[C@H](O)[C@H](C)O2)Oc2ccc(cc2Cl)[C@H]1O` [Vancomycin, reference compound] showed an MIC90 [1, 5] of 3.13 µg/mL (≈ 2.16 µM), an MIC99 [1, 5] of 6.25 µg/mL (≈ 4.31 µM) and an MIC ([1]; Staphylococcus aureus, ATCC29213, 24 h, read-out: MIC95) of 3.13 µg/mL (≈ 2.16 µM). The MIC ([1]; Staphylococcus aureus, ATCC29213, 24 h, read-out: MIC, Visual) was 3.12 µg/mL (≈ 2.16 µM), the MIC90 [2, 6] was 0.39 µg/mL (≈ 0.269 µM) and the MIC99 [2, 6] was 0.78 µg/mL (≈ 0.538 µM). The MIC ([2]; Staphylococcus aureus, ATCC33591, 24 h, read-out: MIC95) was 0.39 µg/mL (≈ 0.269 µM), the MIC ([2]; Staphylococcus aureus, ATCC33591, 24 h, read-out: MIC, Visual) was 0.391 µg/mL (≈ 0.27 µM) and the MIC90 [3, 7] was 12.5 µg/mL (≈ 8.63 µM). For the same compound, the MIC99 [3, 7] was 25 µg/mL (≈ 17.3 µM), the MIC ([3]; Staphylococcus aureus, ATCC700699, 48 h, read-out: MIC95) was 25 µg/mL (≈ 17.3 µM) and the MIC ([3]; Staphylococcus aureus, ATCC700699, 48 h, read-out: MIC, Visual) was 25 µg/mL (≈ 17.3 µM).

Source: patent publication US11116771B2, “G protein-coupled receptor (GPCR) modulation by imipridones” (Oncoceutics, Inc., priority 2016, dated 2021)
